Source: patent US20220354834A1, “METHODS AND MATERIALS FOR TREATING NEUROTOXICITY” (Cavion, Inc., priority 2019, published 2022)

Assays:
[1] = system: intraepidermal nerve fibers (BTZ-induced CIPN); test: IENF density and histopathology of plantar glabrous skin; type: in vivo, Wistar rat; conditions: for IENF DENSITY, Difference in rank sum (Dunn's Multiple Comparison Test): week 8
Protocol: (§1) Wistar female rats (n=52) (Envigo, Correzzano, Italy) at 10-11 weeks of age were utilized. The study was divided into 2 phases of 4 weeks each. […] Body weight was measured periodically during phase 1 from baseline (day 1) to day 28. At baseline and conclusion of phase 1 (day 28), nerve conduction velocity (NCV) was performed on caudal and sciatic nerves and Dynamic Aesthesiometer Test (DAT) measured mechanical threshold (MT) of the hind paw. […] Body weight was measured periodically from baseline (day 28) to day 56 (termination). NCV and MT were measured in all 4 groups at baseline and on day 35 and 56. […] At termination, sciatic nerves were obtained for β-tubulin polymerization and skin samples were procured for intraepidermal nerve fiber (IENF) density and histopathology.
At day 56, animals were euthanized by CO2 inhalation and tissue samples were procured from 4 rats per group. Right sciatic nerve was frozen in liquid nitrogen for β-tubulin polymerization assay and plantar glabrous skin samples were collected for IENF density.
Plantar glabrous skin samples (5 mm) from hind paws were fixed in 2% PLP (paraformaldehyde-lysine-sodium periodate) for 24 hours at 4° C. and cryoprotected overnight. Samples were serially cut with a cryostat to yield 20 μm sections. Three sections from each footpad were randomly selected and immunostained with rabbit polyclonal anti-protein gene product 9.5 (PGP 9.5; GeneTex, Irvine, Calif., USA) in combination with biotinylated anti-rabbit IgG and Vector SG substrate kit peroxidase (Vector Laboratories, Burlingame, Calif.) using a free-floating protocol. A blinded observer counted total number of immune-positive IENF in each section under light microscopy at high magnification with a microscope video camera. Individual fibers were counted that crossed dermal-epidermal interface. Secondary branches within epidermis were excluded. Length of epidermis was measured to generate linear density of IENF/millimeter as described elsewhere (Canta et al., 2016 Neurobiol Aging 45:136-148).

[2] = system: sciatic nerves (BTZ-induced CIPN); test: CIPN-reversal study: sciatic nerve conduction velocity; type: in vivo, Wistar rat
Protocol: as §1
NCV (meters/second) was obtained from caudal and sciatic nerves with an electromyography tool (Myto 2, ABN Neuro, Firenze, Italy). Caudal NCV was measured by placement of recording needle electrodes distally in the tail with stimulating needle electrodes 5 cm and 10 cm proximal to recording point. Peak latencies of potentials recorded at the 2 sites after nerve stimulation were determined and NCV was calculated. Sciatic NCV was determined by placement of needle recording electrodes near ankle bone and stimulating electrodes close to thigh. Peak latencies were recorded similar to caudal nerve and NCV was calculated. NCV was performed under standard conditions in a temperature-controlled facility (22±2° C.) and rats were under isoflurane anesthesia with monitoring of vital signs.

[3] = system: RPMI-8226 human myeloma xenografts; test: In vivo BTZ and combination (BTZ and CX-8998) anti-tumor (interference) study, tumor volume; set-up: species or system athymic nude mouse
Text: Care and husbandry of mice complied with USDA (U.S. Department of Agriculture) Animal Welfare Act and START IACUC (Institutional Animal Care and Use Committee) regulations. The protocol was reviewed and approved by START IACUC. Mice were individually housed in Sealsafe® Plus ventilated cages (Techniplast, West Chester, Pa., USA) and fed with Teklad 2919 (Envigo, Somerset, N.J., USA), irradiated, 19% protein, 9% fat and 4% fiber mouse chow. Mice were maintained under controlled environmental conditions (22+/−2° C. temperature, 55+/−10% relative humidity and 12-hour light/dark cycle (7 a.m.-7 p.m.).
South Texas Accelerated Research Therapeutics (START) (San Antonio, Tex., USA) conducted this study. […] The 30 mg/kg dose was tolerated in preclinical safety studies and anticipated to result in exposures in excess of the therapeutic range for 28 days. Body weight, TV and animal observations were collected twice per week to day 18 (termination) for vehicle control mice and twice per week to day 28 (termination) for each of the other 3 groups. Mean±SD body weight and TV were analyzed with Kruskal-Wallis and Dunn multiple comparison test at day 18 and with Mann Whitney test at day 28 with statistical significance at p<0.05.

MM.1S cells = test: In vitro BTZ cytotoxicity study (SRB assay); type: cell-based; conditions: Homo sapiens, MM1.S, 72 hours, read-out: IC50 of % cell survival
Protocol: (§2) MM.1S and U266B1 cells were obtained from the American Type Culture Collection (San Giovanni, Italy). All cell lines were maintained in floating culture with RPMI medium that contained 2 mM L-glutamine supplemented with 10% FBS, penicillin and streptomycin. MM.1S cell medium was supplemented with 1.5 g/L sodium bicarbonate, 10 mM HEPES and 1 mM sodium pyruvate. Cells were grown in 75 cm^2 culture flasks for floating cells (Corning Inc. Corning, N.Y., USA) at 37° C. in 5% CO2 and 95% air.
(§3) Cells were plated in 96-well plates (Eppendorf, Milano, Italy) at 10000 cells/well. […] After incubation, BTZ was diluted in culture medium at dose range for testing. Cells were fixed with trichloroacetic acid for 1 hour. Cells were stained with a solution of SRB in 1% acetic acid for 15 minutes. Unbound dye was removed by 5 washes with 1% acetic acid. Bound dye was dissolved with a solution of Tris (hydroxymethyl) aminomethane base and absorbance of content was measured at […]. Growth inhibition was expressed as percentage of DMSO control absorbance of cells and corrected for absorbance before addition of drug.

U266B1 cells = test: In vitro BTZ cytotoxicity study (SRB assay); type: cell-based; conditions: Homo sapiens, 72 hours, read-out: IC50 of % cell survival
Protocol: as §2, §3

proteasome = test: Proteasome inhibition assay in PBMCs of treated rats; type: in vivo, rat
Protocol: as §1

[4] = system: human MMCs (RPMI 8226, MM.1S, U266B1); test: In vitro cytotoxicity and combination (BTZ and CX-8998) interference study, SRB assay in the 3 MCLs; type: cell-based; conditions: 72 hours
Protocol: as §3
Differences in percent cell survival between each drug or drug combination and control were analyzed by non-linear least squares with statistical significance at p<0.05.

RPMI 8226 cells = test: In vitro BTZ cytotoxicity study (SRB assay); type: cell-based; conditions: Homo sapiens, 72 hours, read-out: IC50 of % cell survival
[5] = BTZ vs BTZ+ CX-8998 3 mg/kg, P > 0.05 ns
[6] = BTZ vs BTZ+ CX-8998 10 mg/kg, P > 0.05 ns
[7] = BTZ vs BTZ+ CX-8998 30 mg/kg, P < 0.05 *
[8] = BTZ+ CX-8998 3 mg/kg vs BTZ+ CX-8998 10 mg/kg, P > 0.05 ns
[9] = BTZ+ CX-8998 3 mg/kg vs BTZ+ CX-8998 30 mg/kg, P > 0.05 ns
[10] = CTRL vs BTZ+ CX-8998 30 mg/kg, P > 0.05 ns
[11] = BTZ+ CX-8998 10 mg/kg vs BTZ+ CX-8998 30 mg/kg, P > 0.05 ns
[12] = CTRL vs BTZ+ CX-8998 3 mg/kg, P > 0.05 ns
[13] = CTRL vs BTZ+ CX-8998 10 mg/kg, P > 0.05 ns

Question: With CC(C)c1ccc(CC(=O)N[C@H](C)c2ccc(OCC(F)(F)F)cn2)cc1 [CX-8998, (R)-2-(4-Isopropylphenyl)-N-(1-(5-(2,2,2-Trifluoroethoxy)pyridin-2-yl)ethyl)acetamide] as the compound, how does the “IENF DENSITY, Difference in rank sum (Dunn's Multiple Comparison Test)” value (“IENF DENSITY, Difference in rank sum” for short) [1, 5] read?
Answer: −10.93

Question: And the “IENF DENSITY, Difference in rank sum” value [1, 6]?
Answer: −0.04167

Question: And the “IENF DENSITY, Difference in rank sum” value [1, 7]?
Answer: −20.54

Question: And the “IENF DENSITY, Difference in rank sum” value [1, 8]?
Answer: 10.89

Question: And the “IENF DENSITY, Difference in rank sum” value [1, 9]?
Answer: −9.611

Question: And the “IENF DENSITY, Difference in rank sum” value ([1]; BTZ+ CX-8998 10 mg/kg vs BTZ+ CX-8998 30 mg/kg, P < 0.01 **)?
Answer: −20.50

Question: And the “IENF DENSITY, Difference in rank sum” value ([1]; CTRL vs BTZ+ CX-8998 3 mg/kg, P < 0.05 *)?
Answer: 18.06

Question: And the “IENF DENSITY, Difference in rank sum” value ([1]; CTRL vs BTZ+ CX-8998 10 mg/kg, P < 0.001 ***)?
Answer: 28.94

Question: What about the “IENF DENSITY, Difference in rank sum” value [1, 10] of the same compound?
Answer: 8.444

Question: What about the “NCV OF SCIATIC NERVE (5 weeks), Difference in rank sum (Dunn's Multiple Comparison Test)” value [2, 5] of the same compound?
Answer: 6.667

Question: And the “NCV OF SCIATIC NERVE (8 weeks), Difference in rank sum (Dunn's Multiple Comparison Test)” value [2, 5]?
Answer: −10.12

Question: What about the “NCV OF SCIATIC NERVE (8 weeks), Difference in rank sum (Dunn's Multiple Comparison Test)” value ([2]; BTZ vs BTZ+ CX-8998 10 mg/kg, P < 0.05 *) of the same compound?
Answer: −19.26

Question: What about the “NCV OF SCIATIC NERVE (5 weeks), Difference in rank sum (Dunn's Multiple Comparison Test)” value [2, 6] of the same compound?
Answer: 2.583

Question: What about the “NCV OF SCIATIC NERVE (8 weeks), Difference in rank sum (Dunn's Multiple Comparison Test)” value [2, 7] of the same compound?
Answer: −19.77

Question: What about the “NCV OF SCIATIC NERVE (5 weeks), Difference in rank sum (Dunn's Multiple Comparison Test)” value ([2]; BTZ vs BTZ+ CX-8998 30 mg/kg, P > 0.05 ns) of the same compound?
Answer: 5.250

Question: What about the “NCV OF SCIATIC NERVE (5 weeks), Difference in rank sum (Dunn's Multiple Comparison Test)” value [2, 8] of the same compound?
Answer: −4.083

Question: And the “NCV OF SCIATIC NERVE (8 weeks), Difference in rank sum (Dunn's Multiple Comparison Test)” value [2, 8]?
Answer: −9.136

Question: And the “NCV OF SCIATIC NERVE (5 weeks), Difference in rank sum (Dunn's Multiple Comparison Test)” value [2, 9]?
Answer: −1.417

Question: What about the “NCV OF SCIATIC NERVE (8 weeks), Difference in rank sum (Dunn's Multiple Comparison Test)” value [2, 9] of the same compound?
Answer: −9.652

Question: And the “NCV OF SCIATIC NERVE (5 weeks), Difference in rank sum (Dunn's Multiple Comparison Test)” value [2, 11]?
Answer: 2.667

Question: What about the “NCV OF SCIATIC NERVE (8 weeks), Difference in rank sum (Dunn's Multiple Comparison Test)” value [2, 11] of the same compound?
Answer: −0.5152

Question: What about the “NCV OF SCIATIC NERVE (5 weeks), Difference in rank sum (Dunn's Multiple Comparison Test)” value [2, 12] of the same compound?
Answer: 8.917

Question: What about the “NCV OF SCIATIC NERVE (8 weeks), Difference in rank sum (Dunn's Multiple Comparison Test)” value [2, 12] of the same compound?
Answer: 11.98

Question: What about the “NCV OF SCIATIC NERVE (5 weeks), Difference in rank sum (Dunn's Multiple Comparison Test)” value [2, 13] of the same compound?
Answer: 4.833

Question: And the “NCV OF SCIATIC NERVE (8 weeks), Difference in rank sum (Dunn's Multiple Comparison Test)” value [2, 13]?
Answer: 2.848

Question: What about the “NCV OF SCIATIC NERVE (5 weeks), Difference in rank sum (Dunn's Multiple Comparison Test)” value [2, 10] of the same compound?
Answer: 7.500

Question: And the “NCV OF SCIATIC NERVE (8 weeks), Difference in rank sum (Dunn's Multiple Comparison Test)” value [2, 10]?
Answer: 2.333

Question: And the “TUMOR GROWTH DAY 18, Difference in rank sum (Dunn's Multiple Comparison Test)” value (“TUMOR GROWTH DAY 18, Difference” below) ([3]; BTZ vs BTZ+ CX-8998, P > 0.05 ns)?
Answer: −3.000

Question: And the “TUMOR GROWTH DAY 18, Difference” value ([3]; Vehicle Control vs BTZ+ cx-8998, P < 0.05 *)?
Answer: 10.13

Question: How did the IC50 (MM.1S cells) turn out when CC(C)C[C@H](NC(=O)[C@H](Cc1ccccc1)NC(=O)c1cnccn1)B(O)O [BTZ, bortezomib, reference compound] was run?
Answer: 6 ± 0.5 nM

Question: And the IC50 (U266B1 cells)?
Answer: 2.5 ± 0.6 nM

Question: And the “IENF density (number of fibers per millimeter)” value ([1]; BTZ alone vs control, p<0.001)?
Answer: significantly decreased

Question: What about the “IENF DENSITY, Difference in rank sum” value ([1]; CTRL vs BTZ, P < 0.001 ***) of the same compound?
Answer: 28.99

Question: And the “sciatic NCV” value ([2]; BTZ vs control at week 5)?
Answer: numerically less than control but the difference was not statistically significant

Question: What about the “sciatic NCV” value ([2]; BTZ vs control at weeks 4 and 8 (p<0.01, p<0.05)) of the same compound?
Answer: significantly reduced

Question: What about the “NCV OF SCIATIC NERVE (8 weeks), Difference in rank sum (Dunn's Multiple Comparison Test)” value ([2]; CTRL vs BTZ, P < 0.05 *) of the same compound?
Answer: 22.10

Question: And the “NCV OF SCIATIC NERVE (5 weeks), Difference in rank sum (Dunn's Multiple Comparison Test)” value ([2]; CTRL vs BTZ, P > 0.05 ns)?
Answer: 2.250

Question: And the “TUMOR GROWTH DAY 18, Difference” value ([3]; Vehicle Control vs BTZ, P < 0.001 ***)?
Answer: 13.13

Question: And the “tumor volume (TV)” value ([3]; day 18, BTZ alone 1 mg/kg vs vehicle control, p<0.001)?
Answer: significantly reduced TV

Question: And the “tumor volume (TV) trend” value ([3]; day 18 through day 28, BTZ alone)?
Answer: tended to increase

Question: And the “% proteasome activity in circulating PBMCs” value (proteasome; BTZ, week 4 vs baseline, p<0.05)?
Answer: significant inhibition

Question: What about the proteasome activity (proteasome; weeks 5 and 8, BTZ alone) of the same compound?
Answer: similarly inhibited

Question: What about the “inhibition of cell growth (cytotoxicity)” value ([4]; BTZ 0.05-250 nM, 3 MCLs) of the same compound?
Answer: concentration-dependent inhibition of cell growth

Question: What about the percent cell survival ([4]; BTZ alone at IC50 (6, 4, 2.5 nM) vs DMSO control, p<0.001) of the same compound?
Answer: significantly reduced

Question: What about the IC50 (RPMI 8226 cells) of the same compound?
Answer: 4 ± 1.7 nM
